For assay [1], the target named is Phosphatidylinositol 4,5-bisphosphate 3-kinase catalytic subunit alpha isoform (Homo sapiens, UniProt P42336). Nature of the assay: Inhibition of PI3Kalpha.
In assay [2] the target is Mast/stem cell growth factor receptor Kit (Homo sapiens) (UniProt P10721). Put plainly: Inhibition of cKit assessed as activity remaining at 10 uM.
For assay [3], the target named is T1, Inhibitor of nuclear factor kappa-B kinase subunit beta (Homo sapiens) (UniProt O14920).
T1 sequence (whole entry): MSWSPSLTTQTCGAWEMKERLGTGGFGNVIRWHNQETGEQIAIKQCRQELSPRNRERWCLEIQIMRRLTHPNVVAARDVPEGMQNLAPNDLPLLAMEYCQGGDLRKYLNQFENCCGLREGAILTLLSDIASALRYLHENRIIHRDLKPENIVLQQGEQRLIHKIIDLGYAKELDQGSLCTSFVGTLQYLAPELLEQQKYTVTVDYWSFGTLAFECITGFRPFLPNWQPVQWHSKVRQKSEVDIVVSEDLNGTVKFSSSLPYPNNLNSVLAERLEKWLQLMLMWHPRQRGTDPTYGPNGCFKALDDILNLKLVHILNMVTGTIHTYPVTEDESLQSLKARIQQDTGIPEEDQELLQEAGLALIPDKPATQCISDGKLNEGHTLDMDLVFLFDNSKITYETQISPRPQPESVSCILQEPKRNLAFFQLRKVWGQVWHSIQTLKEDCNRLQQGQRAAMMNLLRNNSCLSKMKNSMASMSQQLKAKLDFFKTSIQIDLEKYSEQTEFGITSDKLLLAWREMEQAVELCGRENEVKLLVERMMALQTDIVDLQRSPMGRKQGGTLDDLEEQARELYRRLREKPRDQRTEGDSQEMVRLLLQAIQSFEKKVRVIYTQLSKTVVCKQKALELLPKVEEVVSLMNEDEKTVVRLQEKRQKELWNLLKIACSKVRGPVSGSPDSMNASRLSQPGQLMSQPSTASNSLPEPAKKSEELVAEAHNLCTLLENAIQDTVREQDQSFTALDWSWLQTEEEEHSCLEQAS
Put plainly: Inhibition of IKK-beta assessed as activity remaining at 10 uM.

In assay [4] the target is T2, Tyrosine-protein kinase ITK/TSK (Homo sapiens) (UniProt Q08881).
T2 sequence (whole entry): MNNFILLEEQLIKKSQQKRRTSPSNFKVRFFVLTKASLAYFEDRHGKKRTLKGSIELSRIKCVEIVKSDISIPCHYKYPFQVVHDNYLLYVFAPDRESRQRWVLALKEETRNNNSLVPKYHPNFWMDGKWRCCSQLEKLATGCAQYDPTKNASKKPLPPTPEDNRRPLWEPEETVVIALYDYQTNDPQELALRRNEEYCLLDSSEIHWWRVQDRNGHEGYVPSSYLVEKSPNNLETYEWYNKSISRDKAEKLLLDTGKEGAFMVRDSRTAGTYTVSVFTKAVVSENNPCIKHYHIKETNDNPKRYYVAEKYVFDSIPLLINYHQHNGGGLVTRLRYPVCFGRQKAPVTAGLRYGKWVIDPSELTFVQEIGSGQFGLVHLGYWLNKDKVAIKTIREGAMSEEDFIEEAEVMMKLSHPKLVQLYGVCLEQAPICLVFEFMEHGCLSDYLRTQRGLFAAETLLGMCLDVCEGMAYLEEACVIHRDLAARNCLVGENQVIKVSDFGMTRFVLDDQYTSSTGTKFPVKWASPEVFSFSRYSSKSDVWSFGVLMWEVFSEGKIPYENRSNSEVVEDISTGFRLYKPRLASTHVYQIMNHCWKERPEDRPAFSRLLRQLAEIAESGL
Nature of the assay: Inhibition of Itk assessed as activity remaining at 10 uM.

For assay [5], the target named is Tyrosine-protein kinase Fyn (Homo sapiens) (UniProt P06241). Nature of the assay: Inhibition of Fyn assessed as activity remaining at 10 uM.
In assay [6] the target is Vascular endothelial growth factor receptor 2 (Homo sapiens) (UniProt P35968). Put plainly: Inhibition of KDR assessed as activity remaining at 10 uM.
The target in assay [7] is T3, Interleukin-1 receptor-associated kinase 4 (Homo sapiens) (UniProt Q9NWZ3).
T3 sequence (whole entry): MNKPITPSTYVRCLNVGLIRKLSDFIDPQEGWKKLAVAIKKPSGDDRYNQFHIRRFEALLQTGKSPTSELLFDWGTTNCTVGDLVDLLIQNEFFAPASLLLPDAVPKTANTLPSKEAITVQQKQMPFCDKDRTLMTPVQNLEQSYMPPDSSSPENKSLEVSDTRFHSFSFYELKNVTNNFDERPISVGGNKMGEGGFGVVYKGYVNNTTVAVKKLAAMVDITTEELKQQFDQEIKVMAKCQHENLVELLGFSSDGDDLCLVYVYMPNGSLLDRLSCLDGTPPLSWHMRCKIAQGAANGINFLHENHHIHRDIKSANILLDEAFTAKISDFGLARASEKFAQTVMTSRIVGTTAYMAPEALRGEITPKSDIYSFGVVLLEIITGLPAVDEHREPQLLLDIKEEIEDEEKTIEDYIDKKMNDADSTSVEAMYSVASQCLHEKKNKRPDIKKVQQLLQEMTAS
Nature of the assay: Inhibition of IRAK4 assessed as activity remaining at 10 uM.

The target of assay [8] is T4, Protein kinase C zeta type (Homo sapiens) (UniProt Q05513).
T4 sequence (whole entry): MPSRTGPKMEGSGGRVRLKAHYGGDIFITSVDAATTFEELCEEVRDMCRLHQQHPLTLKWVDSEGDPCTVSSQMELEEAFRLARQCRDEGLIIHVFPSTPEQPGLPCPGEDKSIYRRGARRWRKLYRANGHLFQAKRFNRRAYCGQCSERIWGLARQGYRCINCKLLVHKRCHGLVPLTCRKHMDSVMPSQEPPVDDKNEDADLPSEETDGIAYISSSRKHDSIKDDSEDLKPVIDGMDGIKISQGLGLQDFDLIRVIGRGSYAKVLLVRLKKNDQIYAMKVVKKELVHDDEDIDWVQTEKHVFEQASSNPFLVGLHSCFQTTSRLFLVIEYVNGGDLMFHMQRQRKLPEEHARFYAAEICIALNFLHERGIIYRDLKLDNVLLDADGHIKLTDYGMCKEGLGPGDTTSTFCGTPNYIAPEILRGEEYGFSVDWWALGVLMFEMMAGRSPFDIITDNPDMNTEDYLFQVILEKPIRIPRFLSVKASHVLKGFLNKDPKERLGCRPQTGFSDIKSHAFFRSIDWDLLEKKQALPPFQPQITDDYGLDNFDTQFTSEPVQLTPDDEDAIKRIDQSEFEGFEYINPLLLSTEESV
Put plainly: Inhibition of PKC-zeta assessed as activity remaining at 10 uM.

SMILES strings stand for the structures.

Sequence of Tyrosine-protein kinase Fyn (Homo sapiens) (P06241 2-537 limits assumed): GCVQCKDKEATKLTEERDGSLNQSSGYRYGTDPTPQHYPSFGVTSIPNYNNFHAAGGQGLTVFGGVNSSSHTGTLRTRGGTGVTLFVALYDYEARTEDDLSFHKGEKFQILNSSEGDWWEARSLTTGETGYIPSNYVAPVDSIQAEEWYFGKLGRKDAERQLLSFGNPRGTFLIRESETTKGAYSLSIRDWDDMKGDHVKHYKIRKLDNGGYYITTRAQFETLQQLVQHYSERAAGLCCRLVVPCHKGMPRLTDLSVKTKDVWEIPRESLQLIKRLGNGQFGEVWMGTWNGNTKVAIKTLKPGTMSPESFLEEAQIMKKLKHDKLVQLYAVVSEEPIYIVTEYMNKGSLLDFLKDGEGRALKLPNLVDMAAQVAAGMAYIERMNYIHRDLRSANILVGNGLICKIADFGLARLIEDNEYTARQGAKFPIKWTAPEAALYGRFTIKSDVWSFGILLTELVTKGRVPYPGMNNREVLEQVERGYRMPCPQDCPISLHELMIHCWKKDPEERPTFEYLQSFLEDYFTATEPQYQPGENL
Sequence of Mast/stem cell growth factor receptor Kit (Homo sapiens) (P10721 whole entry): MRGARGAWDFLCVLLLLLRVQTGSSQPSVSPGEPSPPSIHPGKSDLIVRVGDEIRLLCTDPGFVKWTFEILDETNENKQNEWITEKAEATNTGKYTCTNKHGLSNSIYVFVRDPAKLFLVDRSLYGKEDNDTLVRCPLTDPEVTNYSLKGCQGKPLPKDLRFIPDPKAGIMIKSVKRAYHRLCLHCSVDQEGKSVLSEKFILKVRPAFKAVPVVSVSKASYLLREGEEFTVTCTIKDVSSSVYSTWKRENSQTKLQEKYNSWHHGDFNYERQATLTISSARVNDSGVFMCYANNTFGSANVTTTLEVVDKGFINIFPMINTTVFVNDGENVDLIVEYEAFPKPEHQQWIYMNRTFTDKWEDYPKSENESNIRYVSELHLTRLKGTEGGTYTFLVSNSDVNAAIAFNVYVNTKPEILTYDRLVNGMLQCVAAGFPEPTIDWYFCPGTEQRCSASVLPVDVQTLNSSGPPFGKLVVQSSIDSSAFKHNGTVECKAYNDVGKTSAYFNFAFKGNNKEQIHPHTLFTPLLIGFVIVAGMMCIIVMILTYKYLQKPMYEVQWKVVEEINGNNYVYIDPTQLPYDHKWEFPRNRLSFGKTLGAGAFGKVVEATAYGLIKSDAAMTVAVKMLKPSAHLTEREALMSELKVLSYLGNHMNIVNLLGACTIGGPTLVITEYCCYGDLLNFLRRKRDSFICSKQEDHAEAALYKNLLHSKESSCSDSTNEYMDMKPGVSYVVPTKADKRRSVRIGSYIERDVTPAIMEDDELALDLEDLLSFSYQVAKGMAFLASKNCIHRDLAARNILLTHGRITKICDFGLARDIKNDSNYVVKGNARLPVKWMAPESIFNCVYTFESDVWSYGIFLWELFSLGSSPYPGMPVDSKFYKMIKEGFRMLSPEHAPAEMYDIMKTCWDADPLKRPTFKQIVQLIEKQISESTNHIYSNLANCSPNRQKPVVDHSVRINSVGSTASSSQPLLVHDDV
Sequence of Vascular endothelial growth factor receptor 2 (Homo sapiens) (P35968 whole entry): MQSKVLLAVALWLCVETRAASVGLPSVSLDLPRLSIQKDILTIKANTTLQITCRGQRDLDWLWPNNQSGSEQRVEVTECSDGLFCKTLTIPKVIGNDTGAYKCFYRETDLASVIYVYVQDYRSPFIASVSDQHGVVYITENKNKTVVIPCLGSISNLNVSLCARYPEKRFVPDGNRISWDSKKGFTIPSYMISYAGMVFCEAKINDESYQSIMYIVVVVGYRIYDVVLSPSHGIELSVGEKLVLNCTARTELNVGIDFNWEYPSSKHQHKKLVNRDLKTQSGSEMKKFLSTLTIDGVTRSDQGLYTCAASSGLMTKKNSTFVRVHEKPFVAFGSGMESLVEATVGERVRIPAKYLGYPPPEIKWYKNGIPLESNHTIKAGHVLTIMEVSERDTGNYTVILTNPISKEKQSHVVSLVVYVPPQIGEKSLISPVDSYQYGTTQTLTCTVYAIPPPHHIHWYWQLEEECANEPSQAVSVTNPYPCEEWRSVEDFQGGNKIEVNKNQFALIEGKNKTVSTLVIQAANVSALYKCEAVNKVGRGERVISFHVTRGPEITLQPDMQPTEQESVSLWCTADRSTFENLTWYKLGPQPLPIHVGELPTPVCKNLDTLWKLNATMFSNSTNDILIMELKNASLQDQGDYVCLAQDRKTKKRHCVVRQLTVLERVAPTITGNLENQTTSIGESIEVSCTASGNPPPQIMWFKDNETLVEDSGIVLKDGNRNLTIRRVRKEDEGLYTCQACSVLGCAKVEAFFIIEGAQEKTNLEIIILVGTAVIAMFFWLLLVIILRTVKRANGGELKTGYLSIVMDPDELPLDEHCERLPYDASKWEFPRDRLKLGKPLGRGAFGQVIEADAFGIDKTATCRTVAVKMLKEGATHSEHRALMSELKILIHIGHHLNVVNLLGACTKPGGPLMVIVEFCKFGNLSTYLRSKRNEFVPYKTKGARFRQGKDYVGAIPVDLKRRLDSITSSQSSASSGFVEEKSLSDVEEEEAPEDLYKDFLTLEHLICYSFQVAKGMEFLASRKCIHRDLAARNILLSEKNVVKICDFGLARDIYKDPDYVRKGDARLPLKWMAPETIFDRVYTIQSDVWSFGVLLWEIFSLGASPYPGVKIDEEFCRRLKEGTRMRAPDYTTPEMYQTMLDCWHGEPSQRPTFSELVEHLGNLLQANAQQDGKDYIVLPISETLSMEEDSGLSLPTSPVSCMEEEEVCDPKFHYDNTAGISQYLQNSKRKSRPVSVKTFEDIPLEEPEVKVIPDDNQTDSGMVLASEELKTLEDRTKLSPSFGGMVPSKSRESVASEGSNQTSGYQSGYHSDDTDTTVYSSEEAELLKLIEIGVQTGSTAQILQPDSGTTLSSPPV
Sequence of Phosphatidylinositol 4,5-bisphosphate 3-kinase catalytic subunit alpha isoform (P42336 whole entry, canonical isoform): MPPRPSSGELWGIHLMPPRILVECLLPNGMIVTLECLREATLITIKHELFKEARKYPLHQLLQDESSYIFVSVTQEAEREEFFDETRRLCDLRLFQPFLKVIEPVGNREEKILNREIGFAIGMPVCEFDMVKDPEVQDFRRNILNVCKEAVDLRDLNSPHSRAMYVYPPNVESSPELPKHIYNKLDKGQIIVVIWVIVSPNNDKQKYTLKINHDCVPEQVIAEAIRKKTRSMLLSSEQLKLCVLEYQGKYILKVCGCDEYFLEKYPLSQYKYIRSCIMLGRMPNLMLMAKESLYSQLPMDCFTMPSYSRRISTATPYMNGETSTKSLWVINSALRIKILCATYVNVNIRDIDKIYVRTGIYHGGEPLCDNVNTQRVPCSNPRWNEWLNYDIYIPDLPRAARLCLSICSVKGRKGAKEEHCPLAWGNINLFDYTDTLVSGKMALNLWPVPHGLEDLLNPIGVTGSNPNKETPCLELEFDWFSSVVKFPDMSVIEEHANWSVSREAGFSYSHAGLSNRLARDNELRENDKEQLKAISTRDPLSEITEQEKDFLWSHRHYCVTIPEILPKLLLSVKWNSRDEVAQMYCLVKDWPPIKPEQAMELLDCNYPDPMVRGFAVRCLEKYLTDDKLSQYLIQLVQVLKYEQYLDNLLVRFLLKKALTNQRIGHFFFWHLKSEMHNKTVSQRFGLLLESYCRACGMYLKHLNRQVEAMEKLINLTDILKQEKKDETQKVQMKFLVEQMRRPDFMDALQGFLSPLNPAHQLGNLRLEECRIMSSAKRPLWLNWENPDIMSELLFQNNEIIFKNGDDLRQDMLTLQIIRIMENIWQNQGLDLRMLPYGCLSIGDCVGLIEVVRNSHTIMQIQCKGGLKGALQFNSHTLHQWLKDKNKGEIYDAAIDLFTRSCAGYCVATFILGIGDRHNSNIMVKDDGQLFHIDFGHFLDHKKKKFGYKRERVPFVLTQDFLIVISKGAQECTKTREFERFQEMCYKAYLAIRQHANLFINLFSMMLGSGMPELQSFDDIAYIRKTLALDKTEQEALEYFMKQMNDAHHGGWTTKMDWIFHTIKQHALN

In assay [1], `CC(C)(O)c1ccc(-c2cnc3[nH]c(=O)n(CC4CCCCC4)c3n2)cc1` yielded a 50% inhibitory concentration (IC50) of 21.9 µM. In addition, the Activity in assay [2] came to 83%; in assay [3], 91%; in assay [4], 90%; in assay [5] it was 73%; in assay [6], 83%; in assay [7], 87%. In assay [8], the Activity came out at 91%.

Regarding `O=c1[nH]c2ncc(-c3ccc4[nH]cnc4c3)nc2n1CC1CCCCC1`, in assay [1], the IC50 turned out to be 20.1 µM. For the same molecule, the Activity amounted to 94% in assay [2]; 82% in assay [3]; 96% in assay [4]; 67% in assay [5]; 62% in assay [6]; 112% in assay [7]. The Activity in assay [8] worked out at 75%.

As to `O=c1[nH]c2ncc(-c3ccc(-c4nc[nH]n4)cc3)nc2n1CC1CCOCC1`, the IC50 in assay [1] came to 2.6 µM. Besides, the Activity in assay [2] stood at 95%; in assay [3] it was 98%; in assay [4], 99%; in assay [5] it was 102%; in assay [6] it was 88%; in assay [7] it was 97%. The Activity in assay [8] was found to be 94%.

The IC50 is the concentration at which inhibition is half-maximal. The low end stands for greater potency in that assay, the high end for weaker potency in that assay.

Values taken from ChEMBL document CHEMBL1944561, “Discovery and SAR exploration of a novel series of imidazo[4,5-b]pyrazin-2-ones as potent and selective mTOR kinase inhibitors” (Bioorg Med Chem Lett, 2011).
